Results taken from patent US20260327264A1, “PEPTIDE INHIBITORS OF INTERLEUKIN-23 RECEPTOR” (Zealand Pharma A/S, priority 2023, published 2026).
*1 amine or outer side, *2 acyl side, *3 side chain or, on linkers, in order; H or OH if unused. Where a SMILES comes first, the peptide text is derived from it. Bridges are numbered along the chain shown (N, C = ends). [ ]: non-standard residue; d: D form. 2Nal = N[C@@H](Cc1ccc2ccccc2c1)C(=O)O; AEF = NCCOc1ccc(C[C@H](N)C(=O)O)cc1; X1 = O=C(Cc1ccc(CN[*:1])cc1)[*:2]; 3Pal = N[C@@H](Cc1cccnc1)C(=O)O; αMeL = CC(C)C[C@](C)(N)C(=O)O; CH2COCH2 = O=C(C[*:1])C[*:2]; 3Amb = NCc1cccc(C(=O)O)c1; NMeS = CN[C@@H](CO)C(=O)O; NMeA = CN[C@@H](C)C(=O)O; Dab = NCC[C@H](N)C(=O)O; Aib = CC(C)(N)C(=O)O; βAla = NCCC(=O)O

How the values were obtained:
human IL-23R = biological target: T1, human IL-23R (Homo sapiens, UniProt Q5VWK5); test: Binding assay: displacement of fluorophore (TAMRA)-labelled reference compound from human IL-23R (BRET, Nluc-IL23R fusion protein membranes); conditions: for Emax: read-out: % displacement (hIL-23R binding)
T1 construct: Nanoluc luciferase (Nluc); secretion signal encoded by the plasmid (not specified); expressed in transfected cells; crude membranes used in the assay
T1 sequence (Q5VWK5 22-629): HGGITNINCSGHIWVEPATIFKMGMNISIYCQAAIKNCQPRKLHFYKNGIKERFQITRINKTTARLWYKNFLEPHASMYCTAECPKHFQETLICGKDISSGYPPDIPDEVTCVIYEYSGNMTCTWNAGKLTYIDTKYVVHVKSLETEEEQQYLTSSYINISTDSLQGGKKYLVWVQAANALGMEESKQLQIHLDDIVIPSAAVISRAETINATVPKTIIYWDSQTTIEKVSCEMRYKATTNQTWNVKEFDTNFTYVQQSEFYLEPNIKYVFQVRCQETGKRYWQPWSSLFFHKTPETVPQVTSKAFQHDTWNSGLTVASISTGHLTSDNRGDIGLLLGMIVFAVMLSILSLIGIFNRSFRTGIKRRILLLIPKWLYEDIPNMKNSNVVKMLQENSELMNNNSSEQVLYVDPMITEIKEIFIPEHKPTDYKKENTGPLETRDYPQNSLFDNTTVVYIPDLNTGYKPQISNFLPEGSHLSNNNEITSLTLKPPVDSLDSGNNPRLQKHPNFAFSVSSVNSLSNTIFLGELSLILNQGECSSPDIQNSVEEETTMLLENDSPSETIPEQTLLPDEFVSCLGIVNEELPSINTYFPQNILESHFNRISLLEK
Description: The assay principle relies on Bioluminescence Resonance Energy Transfer (BRET) between a fluorophore-labelled reference compound binding to the IL-23R part of a fusion protein consisting of the IL-23R fused to a Nanoluc luciferase enzyme (Nanoluc). The Nanoluc is placed in the N-terminus in close proximity to the binding domain of the ligand. Upon close proximity between the fluorophore of the fluorophore-labelled compound and the Nanoluc of the fusion protein, bioluminescence energy generated from conversion of a Nanoluc substrate, is transferred to the fluorophore resulting in an increase in BRET. In presence of an unlabelled compound, the unlabelled compound displaces the fluorophore-labelled peptide from its binding site resulting in a decrease in BRET. The concentration for which half of the fluorophore-labelled peptide is displaced by the unlabelled compound depends on the affinity of the compound for the IL-23R, and is termed the IC50 concentration.
The plasmid also contained a gene to confer resistance for the antibiotic hygromycin. A cell line stably expressing the Nluc-IL23R fusion protein was generated by transfection of HEK293 cells with the expression plasmid and selected with hygromycin for 3 weeks in Growth medium consisting of DMEM w/Glutamax-I containing, 10% V/V FBS, 1% V/V P/S, 1 mM Sodium Pyruvate, and 1× NEAA, and 0.3 mg/mL hygromycin. The remaining cells were propagated and considered a stable expressing Nluc-IL23R fusion protein pool clone.
Cells expressing the Nluc-IL23R fusion protein were expanded in Growth medium and membranes prepared by homogenization of a cell pellet from 18 T175 flasks (4° C. in subsequent steps). The cell pellet was lysed Tris 10 mM, 7.5, 1 mM EDTA and protease inhibitors (Complete, Roche) and homogenized using a 15 mL glass-dounce by 50 strokes. The homogenate was spun at spin @1500 rpm for 10 min, the supernatant transferred to SV-34 tubes and spun at 40000 g for 20 min at 4° C. to pellet the crude membranes. The supernatant was then removed, the pellet resuspended in 5 mL buffer containing 50 mM HEPES pH 7.4, 5 mM EGTA, and 5 mM MgCl2, and homogenized. Aliquots of the resuspended and homogenized membranes containing the Nluc-IL23R fusion protein were stored at −80° C. until use.
The plate was sealed with light impermeable plate seals, and incubated on an orbital shaker 400 rpm for 2 hours at room temperature. To determine the BRET ratio, the plate seal was removed and 25 μL of the Nanoluc substrate (Promega N1572) diluted 1:500 was added to each well and incubated for 1-2 minutes on an orbital shaker at 400 rpm. […] The BRET ratio was calculated as the fluorescence from the TAMRA/nanoluc bioluminescence.
Compound potency (IC50) and maximal displacement (% displacement) were estimated by computer-aided curve fitting using a 4-parameter logistic (4PL) non-linear model. The IC50 and maximal for each compound was determined by computer-aided curve fitting using a 4-parameter logistic (4PL) non-linear model.

[1] = tested on: IL-23 mediated STAT3 signalling (DB cells); test: Functional inhibition of IL-23 mediated STAT3 signalling (phospho-STAT3 Tyr705) in DB cells; assay type: cell-based, human; conditions: for IC50: Table 3-2, EC80 of hIL-23, read-out: hIL-23 (pSTAT3) antagonist IC50; for hIL-23 (pSTAT3) antagonist % inhibition: Table 3-2, maximal inhibitory response, EC80 of hIL-23
Description: Upon binding of IL-23, the IL-23R forms a heterodimer signalling complex together with IL-12R β1, which through the JAK2/STAT3 pathway promotes phosphorylation of STAT3 to form phospho-STAT3.
For compounds tested in this assay, the response was normalized relative to control values to calculate the IC50 and maximal inhibitory response from a concentration response curve of the compound in presence of a fixed concentration of human IL-23.
The assay procedure was as follows. […] Following preincubation of the DB cells with inhibitor for 15 min in a cell incubator (37° C., 5% CO2), 20 μL of the prepared 3× the EC80 of hIL-23 solution was added to each well and incubated for 90 min in a cell incubator (37° C., 5% CO2). For some wells buffer only or IL-23 only corresponding to the EC80 was added to obtain readouts needed for normalization. To terminate the assay, the plate was spun at 1000 G for 5 min to pellet cells, the supernatant removed using an 8-channel manual pipette, and then added 50 μL/well Complete Lysis Buffer from the MSD STAT3 kit (Cat #K150SVD, Mesoscale) to the cell pellet. To completely lyse cells to release phospho-STAT3 for detection, the plate was shaken for 10 min at room temperature (500 rpm) sealed with aluminium foil and placed at −80° C. for a minimum of 15 min. Detection of the phospho-STAT3 level in the cell lysate from the individual wells was determined using the MSD STAT3 kit (Cat #K150SVD, Mesoscale) and read on a Meso QuickPlex SQ 120 plate reader (Mesoscale).
For data analysis raw data counts from the Meso QuickPlex SQ 120 plate reader were normalized relative to the response by the EC80 of hIL-23 alone (no compound added) and the buffer level.

Compound	Emax (human IL-23R) [%]	IC50 [1] [nM]	hIL-23 (pSTAT3) antagonist % inhibition [1] [%]	IC50 (human IL-23R) [nM]
CNC(=O)[C@H](Cc1cccnc1)NC(=O)[C@H](CCN)NC(=O)[C@@H]1CCC(=O)NCc2ccc(cc2)CC(=O)N[C@@H](C)C(=O)N[C@H]2CCC(=O)NCC[C@H](NC(=O)[C@H](CCC(N)=O)NC(=O)[C@H](Cc3c[nH]c4ccccc34)NC2=O)C(=O)N[C@@H](Cc2c[nH]c3ccccc23)CC(=O)N[C@@H](Cc2ccc3ccccc3c2)C(=O)NC(C)(C)C(=O)N1 [Compound 45, [4-Aminomethyl-phenylacetyl](1c)*AE(2c)WQ[Dab](2c)[beta-hTrp][2-Nal][Aib]E(1c)[Dab][3-(3-Pyridyl)-Ala]-[NHMe]]	104	–	–	–
CC(C)C[C@]1(C)NC(=O)[C@H](Cc2ccc3ccccc3c2)NC(=O)[C@H](Cc2ccc(OCCN)cc2)NC(=O)[C@@H]2CSCC(=O)CSC[C@H](NC(=O)[C@H](CO)NC(=O)c3cccc(c3)CNC(=O)CC[C@@H](C(=O)N[C@@H](CCCNC(=N)N)C(=O)N[C@@H](Cc3cccnc3)C(N)=O)NC1=O)C(=O)N[C@@H](Cc1c[nH]c3ccccc13)C(=O)N[C@@H](CCC(N)=O)C(=O)N2 [Ref 78, [(3-Aminomethyl)benzoyl](1c)*SC(2a)WQC(2a)[Y(2-aminoethoxy)][2-Nal][2-Me-Leu]E(1c)R[3-(3-Pyridyl)-Ala]-[NH2], reference compound] ([3Amb]SCWQC[AEF][2Nal][αMeL]ER[3Pal]-NH2; linker 3-6 via CH2COCH2; lactam N-10)	–	0.13	100	–
CC(C)C[C@]1(C)NC(=O)[C@H](Cc2ccc3ccccc3c2)NC(=O)[C@H](Cc2ccc(OCCN)cc2)NC(=O)[C@@H]2CSCC(=O)CSC[C@H](NC(=O)[C@H](CO)NC(=O)Cc3ccc(cc3)CNC(=O)CC[C@@H](C(=O)N[C@H](CCCNC(=N)N)C(N)=O)NC1=O)C(=O)N[C@@H](Cc1c[nH]c3ccccc13)C(=O)N[C@@H](CCC(N)=O)C(=O)N2 [Ref 80, [4-Aminomethyl-phenylacetyl](1c)*SC(2a)WQC(2a)[Y(2-aminoethoxy)][2-Nal][2-Me-Leu]E(1c)[{d}R]-[NH2], reference compound] ([X1]SCWQC[AEF][2Nal][αMeL]E[dR]-NH2; linker 3-6 via CH2COCH2; lactam N-10)	–	11	97	–
CC(C)C[C@]1(C)NC(=O)[C@H](Cc2ccc3ccccc3c2)NC(=O)[C@H](Cc2ccc(OCCN)cc2)NC(=O)[C@@H]2CSCC(=O)CSC[C@H](NC(=O)[C@H](CO)NC(=O)[C@H](Cc3cccnc3)NC(=O)CCNC(=O)CC[C@@H](C(=O)N[C@H](CCCNC(=N)N)C(N)=O)NC1=O)C(=O)N[C@@H](Cc1c[nH]c3ccccc13)C(=O)N[C@@H](CCC(N)=O)C(=O)N2 [Compound 1, [3-Aminopropanoyl](4c)*[3-(3-Pyridyl)-Ala]SC(2a)WQC(2a)[Y(2-aminoethoxy)][2-Nal][2-Me-Leu]E(4c)[{d}R]-[NH2]] ([βAla][3Pal]SCWQC[AEF][2Nal][αMeL]E[dR]-NH2; linker 4-7 via CH2COCH2; lactam N-11)	105	–	–	–
CNC(=O)[C@H](Cc1cccnc1)NC(=O)[C@H](CCN)NC(=O)[C@@H]1CCC(=O)NCc2ccc(cc2)CC(=O)N(C)[C@@H](C)C(=O)N[C@H]2CCC(=O)NCC[C@H](NC(=O)[C@H](CCC(N)=O)NC(=O)[C@H](Cc3c[nH]c4ccccc34)NC2=O)C(=O)N[C@@H](Cc2ccc(OCCN)cc2)C(=O)N[C@@H](Cc2ccc3ccccc3c2)C(=O)NC(C)(C)C(=O)N1 [Compound 48, [4-aminomethyl-phenylacetyl(1c)*][N—Me-Ala]E(2c)WQ[Dab](2c)[Y(2-aminoethoxy)][2Nal][Aib]E(1c)[Dab][3-(3-Pyridyl)-alanyl]-[NHMe]] ([X1][NMeA]EWQ[Dab][AEF][2Nal][Aib]E[Dab][3Pal]-NHMe; lactam 3-6, N-10)	96	–	–	0.01
CC(C)C[C@]1(C)NC(=O)[C@H](Cc2ccc3ccccc3c2)NC(=O)[C@H](Cc2ccc(OCCN)cc2)NC(=O)[C@@H]2CSCC(=O)CSC[C@H](NC(=O)[C@H](CO)N(C)C(=O)Cc3ccc(cc3)CNC(=O)CC[C@@H](C(=O)N[C@@H](CCN)C(N)=O)NC1=O)C(=O)N[C@@H](Cc1c[nH]c3ccccc13)C(=O)N[C@@H](CCC(N)=O)C(=O)N2 [Ref 141, [4-Aminomethyl-phenylacetyl](1c)*[N—Me-Ser]C(2a)WQC(2a)[Y(2-aminoethoxy)][2-Nal][2-Me-Leu]E(1c)[Dab]-[NH2], reference compound] ([X1][NMeS]CWQC[AEF][2Nal][αMeL]E[Dab]-NH2; linker 3-6 via CH2COCH2; lactam N-10)	102	–	–	–
CC(C)C[C@]1(C)NC(=O)[C@H](Cc2ccc3ccccc3c2)NC(=O)[C@H](Cc2ccc(OCCN)cc2)NC(=O)[C@@H]2CCNC(=O)CC[C@H](NC(=O)[C@H](CO)NC(=O)Cc3ccc(cc3)CNC(=O)CC[C@@H](C(=O)NC[C@H](N[C@@H](Cc3cccnc3)C(N)=O)C(F)(F)F)NC1=O)C(=O)N[C@@H](Cc1c[nH]c3ccccc13)C(=O)N[C@@H](CCC(N)=O)C(=O)N2 [Compound 17, [4-Aminomethyl-phenylacetyl](1c)*SE(2c)WQ[Dab](2c)[Y(2-aminoethoxy)][2-Nal][2-Me-Leu]E(1c)[Gly-CF3][3-(3-Pyridyl)-Ala]-[NH2]]	98	–	–	1.2
CC(C)C[C@]1(C)NC(=O)[C@H](Cc2ccc3ccccc3c2)NC(=O)[C@H](Cc2ccc(OCCN)cc2)NC(=O)[C@@H]2CCNC(=O)CC[C@H](NC(=O)[C@H](CO)NC(=O)Cc3ccc(cc3)CNC(=O)CC[C@@H](C(=O)NC[C@@H](N[C@@H](Cc3cccnc3)C(N)=O)C(F)(F)F)NC1=O)C(=O)N[C@@H](Cc1c[nH]c3ccccc13)C(=O)N[C@@H](CCC(N)=O)C(=O)N2 [Compound 16, [4-Aminomethyl-phenylacetyl](1c)*SE(2c)WQ[Dab](2c)[Y(2-aminoethoxy)][2-Nal][2-Me-Leu]E(1c)[{d}Gly-CF3][3-(3-Pyridyl)-Ala]-[NH2]]	–	1.4	97	–
CC(C)C[C@]1(C)NC(=O)[C@H](Cc2ccc3ccccc3c2)NC(=O)[C@H](Cc2ccc(OCCN)cc2)NC(=O)[C@@H]2CSCC(=O)CSC[C@H](NC(=O)[C@H](CO)NC(=O)CCNC(=O)[C@H](Cc3cccnc3)NC(=O)CC[C@@H](C(=O)N[C@H](CCCNC(=N)N)C(N)=O)NC1=O)C(=O)N[C@@H](Cc1c[nH]c3ccccc13)C(=O)N[C@@H](CCC(N)=O)C(=O)N2 [Compound 2, [3-(3-Pyridyl)-Ala](4c)*[3-Aminopropanoy]SC(2a)WQC(2a)[Y(2-aminoethoxy)][2-Nal][2-Me-Leu]E(4c)[{d}R]-[NH2]] ([3Pal][βAla]SCWQC[AEF][2Nal][αMeL]E[dR]-NH2; linker 4-7 via CH2COCH2; lactam N-11)	103	–	–	–
CC(=O)N[C@H]1CCSC[C@@H](C(=O)N[C@@H](Cc2ccc(OCCN)cc2)C(=O)N[C@@H](Cc2c[nH]c3ccccc23)C(=O)N[C@@](C)(CCCCN)C(=O)N[C@@H](CCC(=O)O)C(=O)N[C@@H](CC(N)=O)C(=O)NCC(N)=O)NC(=O)[C@H](CCC(N)=O)NC(=O)[C@H](Cc2c[nH]c3ccccc23)NC(=O)[C@H]([C@@H](C)O)NC(=O)[C@H](CCC(N)=O)NC1=O [Compound C, [Ac]-[Abu](16i)QTWQC(16i)[Y(2-aminoethoxy)]W[2-Me-Lys]ENG-[NH2], reference compound]	102	–	–	–
CC(=O)N[C@@H](CC(=O)O)C(=O)N[C@H]1CCC(=O)NCCCC[C@@H](C(=O)N[C@@H](CCCNC(=N)N)C(N)=O)NC(=O)[C@H](CC(C)C)NC(=O)[C@H](Cc2ccc3ccccc3c2)NC(=O)[C@H](Cc2c[nH]c3ccccc23)NC(=O)[C@@H]2CSCC(=O)CSC[C@H](NC(=O)[C@H](CO)NC1=O)C(=O)N[C@@H](Cc1c[nH]c3ccccc13)C(=O)N[C@@H](CCC(N)=O)C(=O)N2 [Ref 17, [Ac]-DE(1c)SC(2a)WQC(2a)W[2-Nal]LK(1c)R-[NH2], reference compound]	–	370	–	–
